These results are taken from patent US5066676A, “Sulfonamido derivative inhibiting the aldose reductase enzyme system and pharmaceutical compositions containing them” (Laboratori Baldacci SpA, priority 1987, dated 1991).

One series in a line: Acute toxicity: mice. The settings on record: in vivo, mouse (Swiss), read-out: % Death. On the procedure: (§1) The toxicity tests after only one administration have been carried out on two animal species (mice and rats), using two administration routes (os, iv).
For these tests Swiss mice have been used, of both sexes, having average weight 20 g, fasted after 18 hours and administered with water ad libitum. The animals were maintained under standard environment conditions (temperature: 20°-22° C. and moisture 50%).
(§2) The compounds have been administered by gastric probe, suspended in Methocell or by injection (iv) dissolved in physiological solution with the addition of sodium bicarbonate.
(§3) The animals have been kept under observation for 15 days. The controls have been carried out several times in the first days and twice a day in the next days. In the table 1 the conditions used and the results obtained are reported.

The next series in a line: Acute toxicity: rat. The settings on record: in vivo, rat (Wistar), 20 ml/kg, read-out: % Death.
Text: as §1, §2, §3
Wistar rats, of both sexes have been used of average weight of 120 g, fasted after 18 hours and with water at libitum. The conditions of stalling and the administration ways were the same as those reported in the preceeding paragraph (acute toxicity: mouse).

In another series the target is T1, aldose reductase (Bos taurus, UniProt P16116).
T1 construct: 4 bovine crystalline lenses (8 g) are homogenized by means of Potter in ice bath; from tissue; host or cells: bovine crystalline lens
Description: In vitro inhibition of aldose reductase activity of raw extracts from bovine crystalline lens. The settings on record: for inhibiting action of the aldose reductase activity (in words): bovine lens extract; for IC50: glyceraldehyde substrate, NADPH, pH 6.8, 37° C., read-out: IC50 on the aldose reductase activity of raw extracts originating from bovine crystalline lens. The class given is biochemical. The protocol:
"In vitro" tests have been carried out to evalute the inhibition of the aldose reductase activity, prepared from the extract of bovine crystalline lenses.
PREPARATION OF THE RAW EXTRACTS
4 bovine crystalline lenses (8 g) are homogenized by means of Potter in ice bath with 40 ml of 50 mM phosphate buffer, pH 6.8, containing 2-mercaptoethanol pH ([…]). After centrifugation (12.000×g -20 min-4° C.) the supernatant is brought to 40% saturation with an ammonium sulphate and centrifugated again (14.000×g). The supernatant is then brought to the 80% saturation ((NH4)2 SO4) and, after centrifugation for 20 minutes and at 14.000×g, the sedimented matter is recovered and suspended in 7 ml of phosphate buffer. The enzymatic preparation is dialyzed by ultrafiltration with AMICON ultrafiltration cell.
DOSAGE OF THE ENZYMATIC ACTIVITY
The reference cuvette contains all the several substances apart from the substrate.

For `CN(CC(=O)O)S(=O)(=O)c1ccc2oc3ccc(F)cc3c(=O)c2c1` [ARI 8, 7-fluoro-2-(N-methyl-N-carboxymethyl)sulfamoylxanthone], the mortality at 360 h in the series “Acute toxicity: mice” (po, 5000 mg/kg/os) is 10%; in the series “Acute toxicity: mice” (400 mg/kg/iv), 0%; in the series “Acute toxicity: rat” (po, 5000 mg/kg/os), 30%; in “Acute toxicity: rat” (500 mg/kg/iv) it was 40%; in “Acute toxicity: rat” (400 (unit and route not given)), 0%. Further, the “inhibiting action of the aldose reductase activity (in words)” value on aldose reductase was “higher activity, with respect to the of sorbinil and of ARI 1”. Moreover, the IC50 on aldose reductase came out at 1000 nM.

Take `CN(CC(=O)O)S(=O)(=O)c1ccc2oc3ccc(S(=O)(=O)N(C)CC(=O)O)cc3c(=O)c2c1` [ARI 9, 2,7-bis (N-methyl-N-carboxymethyl) sulfamoylxanthone]: on aldose reductase, the “inhibiting action of the aldose reductase activity (in words)” value is “higher activity, with respect to the of sorbinil and of ARI 1”; the IC50 is 1000 nM.

One may read the IC50 as the concentration that inhibits the measured activity by half.
